The results in this text go back to patent US6248586A, “Antisense modulation of PKA catalytic subunit C-alpha expression” (Isis Pharmaceuticals, Inc., priority 1999, dated 2001).

One series relates to human PKA catalytic subunit C-alpha mRNA. As to the kind of experiment: Inhibition of PKA catalytic subunit C-alpha mRNA levels in oligonucleotide-treated cells, quantitative real-time PCR. Details: concentration or dose not given beside the values. Type of series: cell-based. The settings on record: Table 1, phosphorothioate oligodeoxynucleotides, averages from two experiments. As for the experimental part: when cells reached 80% confluency, they were treated with oligonucleotide. For cells grown in 96-well plates, wells were washed once with 200 μL. OPTI-MEM™-1 reduced-serum medium (Gibco BRL) and then treated with 130 μL of OPTI-MEM™-1 containing 3.75 μg/mL LIPOFECTIN™ (Gibco BRL) and the desired concentration of oligonucleotide. After 4-7 hours of treatment, the medium was replaced with fresh medium. Cells were harvested 16-24 hours after oligonucleotide treatment.
Poly(A)+ mRNA was isolated according to Miura et al., Clin. Chem., 1996, 42, 1758-1764. Other methods for poly(A)+ mRNA isolation are taught in, for example, Ausubel, F. M. et al., Current Protocols in Molecular Biology, Volume 1, pp. 4.5.1-4.5.3, John Wiley & Sons, Inc., 1993. Briefly, for cells grown on 96-well plates, growth medium was removed from the cells and each well was washed with 200 μL cold PBS. 60 μL lysis buffer (10 mM Tris-HCl, pH 7.6, 1 mM EDTA, 0.5 M NaCl, 0.5% NP-40, 20 mM vanadyl-ribonucleoside complex) was added to each well, the plate was gently agitated and then incubated at room temperature for five minutes. 55 μL of lysate was transferred to Oligo d(T) coated 96-well plates (AGCT Inc., Irvine Calif.). Plates were incubated for 60 minutes at room temperature, washed 3 times with 200 μL of wash buffer (10 mM Tris-HCl pH 7.6, 1 mM EDTA, 0.3 M NaCl). After the final wash, the plate was blotted on paper towels to remove excess wash buffer and then air-dried for 5 minutes. 60 μL of elution buffer (5 mM Tris-HCl pH 7.6), preheated to 70° C. was added to each well, the plate was incubated on a 90° C. hot plate for 5 minutes, and the eluate was then transferred to a fresh 96-well plate.
Quantitat:ion of PKA catalytic subunit C-alpha mRNA levels was determined by real-time quantitative PCR using the ABI PRISM™ […] Sequence Detection System (PE-Applied Biosystems, Foster City, Calif.) according to manufacturer's instructions. This is a closed-tube, non-gel-based, fluorescence detection system which allows high-throughput quantitation of polymerase chain reaction (PCR) products in real-time. As opposed to standard PCR, in which amplification products are quantitated after the PCR is completed, products in real-time quantitative PCR are quantitated as they accumulate. This is accomplished by including in the PCR reaction an oligonucleotide probe that anneals specifically between the forward and reverse PCR primers, and contains two fluorescent dyes. A reporter dye (e.g., JOE, FAM, or VIC, obtained from either Operon Technologies Inc., Alameda, Calif. or PE-Applied Biosystems, Foster City, Calif.) is attached to the 5' end of the probe and a quencher dye (e.g., TAMRA, obtained from either Operon Technologies Inc., Alameda, Calif. or PE-Applied Biosystems, Foster City, Calif.) is attached to the 3' end of the probe. When the probe and dyes are intact, reporter dye emission is quenched by the proximity of the 3' quencher dye. During amplification, annealing of the probe to the target sequence creates a substrate that can be cleaved by the 5'-exonuclease activity of Taq polymerase. […] With each cycle, additional reporter dye molecules are cleaved from their respective probes, and the fluorescence intensity is monitored at regular intervals by laser optics built into the ABI PRISM™ 7700 Sequence Detection System. In each assay, a series of parallel reactions containing serial dilutions of mRNA from untreated control samples generates a standard curve that is used to quantitate the percent inhibition after antisense oligonucleotide treatment of test samples.
PCR reagents were obtained from PE-Applied Biosystems, Foster City, Calif. […]
For orientation: Real-time PCR tracks product formation cycle by cycle.
For “102436 (antisense TGGCTGCGGCCGGCGGCCCG; chemistry not given here) [compound 102436]”, the “% Inhibition of PKA catalytic subunit C-alpha mRNA levels” value (from here on “% Inhibition”) was 49%.
For the substance “102438 (antisense GCGGCGGGTGCTGGCTGCGG; chemistry not given here) [compound 102438]”, the “% Inhibition” value was 15%.
The same measure, in the same setting: as for “102440 (antisense TCGCGGCGGCGGCGGCCGGG; chemistry not given here) [compound 102440]”, the figure is 19%.
Still for that read-out and setting: as for “102442 (antisense CATCGCGGCGGCGGCGGCCG; chemistry not given here) [compound 102442]”, the figure is 49%; as for “102444 (antisense CCCATCGCGGCGGCGGCGGC; chemistry not given here) [compound 102444]”, 47%; as for “102446 (antisense TGCCCATCGCGGCGGCGGCG; chemistry not given here) [compound 102446]”, 29%.
Take “102448 (antisense GTTGCCCATCGCGGCGGCGG; chemistry not given here) [compound 102448]”: the “% Inhibition” value was 47%.
Still for that read-out and setting: in the case of “102450 (antisense GCGTTGCCCATCGCGGCGGC; chemistry not given here) [compound 102450]” it was 64%.
Same read-out and setting: as for “102454 (antisense CGGCGTTGCCCATCGCGGCG; chemistry not given here) [compound 102454]”, the figure is 53%; as for “102458 (antisense GGCGGCGTTGCCCATCGCGG; chemistry not given here) [compound 102458]”, 69%; as for “102462 (antisense GCGGCGGCGTTGCCCATCGC; chemistry not given here) [compound 102462]”, 67%.
The same measure, in the same setting: in the case of “102466 (antisense CGGCGGCGGCGTTGCCCATC; chemistry not given here) [compound 102466]” it was 79%; in that of “102470 (antisense GGCGGCGGCGGCGTTGCCCA; chemistry not given here) [compound 102470]”, 49%; in that of “102474 (antisense ATTCTTTCACGCTCTCCTGC; chemistry not given here) [compound 102474]”, 3%.
As to “102478 (antisense CAAACTGATCCAAGTGGGCT; chemistry not given here) [compound 102478]”, the “% Inhibition” value was 73%.
Still for that read-out and setting: in the case of “102482 (antisense CCAGCATCACCCGCCCGAAG; chemistry not given here) [compound 102482]” it was 66%; in that of “102486 (antisense CTTCTGTTTGTCGAGGATCT; chemistry not given here) [compound 102486]”, 51%.
On the same count and under the same terms, as for “102490 (antisense GCTTGCAGGATGCGCTTTTC; chemistry not given here) [compound 102490]”, the figure is 66%.
As for “102494 (antisense GTTGTCCTTGAAGGAGAACT; chemistry not given here) [compound 102494]”, the “% Inhibition” value is 0%.
As for “102498 (antisense GAACATCTCCCCGCCGGGCA; chemistry not given here) [compound 102498]”, the “% Inhibition” value came out at 13%.
As to “102502 (antisense TAGATGAGATCCAGCGAGTG; chemistry not given here) [compound 102502]”, the “% Inhibition” value is 28%.
With “102506 (antisense GCGGCCCTTCACGCGCTTGG; chemistry not given here) [compound 102506]”, the “% Inhibition” value worked out at 0%.
Consider “102510 (antisense TCTGCGAAGAAGGGCGGGTA; chemistry not given here) [compound 102510]”, for which the “% Inhibition” value is reported as 0%.
Still for that read-out and setting: as for “102514 (antisense TCCTTCAAGTCAGAGCTGAA; chemistry not given here) [compound 102514]”, the figure is 44%.
In the case of “102518 (antisense AAACCACTTGTGGTTCTTGA; chemistry not given here) [compound 102518]”, the “% Inhibition” value is 34%.
Take “102522 (antisense CTTCCTCATAGTCGTCAAAG; chemistry not given here) [compound 102522]”: the “% Inhibition” value amounted to 32%.
On to “102526 (antisense GGCATGCCCCTAAAACTCAG; chemistry not given here) [compound 102526]”, for which the “% Inhibition” value is given as 45%.
Still for that read-out and setting: as for “102530 (antisense GGAGCAGCTGGTGTTTCTGT; chemistry not given here) [compound 102530]”, the figure is 39%.
Still for that read-out and setting: as for “102534 (antisense TTGGCGCTTCGTTCATTTGC; chemistry not given here) [compound 102534]”, the figure is 39%; as for “102538 (antisense AAGCAACCCACTGAACATGT; chemistry not given here) [compound 102538]”, 38%.
As for “102543 (antisense GCTTCTCTTTAAAATGGATT; chemistry not given here) [compound 102543]”, the “% Inhibition” value is 16%.
The same measure, in the same setting: as for “102547 (antisense ACCCTCGCAGGATTGGCAGA; chemistry not given here) [compound 102547]”, the figure is 53%; as for “102553 (antisense CGCTGCTGGGAGGAAAGACT; chemistry not given here) [compound 102553]”, 52%.
Same read-out and setting: as for “102558 (antisense TGCAGGGATGCCCTCCCCAC; chemistry not given here) [compound 102558]”, the figure is 65%; as for “102563 (antisense CCTTGAACCCCGGGCCGTGG; chemistry not given here) [compound 102563]”, 56%; as for “102568 (antisense CAGGCAGCCCCTCCCCAGCA; chemistry not given here) [compound 102568]”, 49%.
Same read-out and setting: as for “102573 (antisense AGCACAAATGAGAAAGTGGG; chemistry not given here) [compound 102573]”, the figure is 7%.
As for “102579 (antisense TGGCTCCCCAGCGGCTCCCC; chemistry not given here) [compound 102579]”, the “% Inhibition” value was 36%.
For “102584 (antisense CACACAGGTTGAATCGCCCC; chemistry not given here) [compound 102584]”, the “% Inhibition” value turned out to be 61%.
The same measure, in the same setting: as for “102589 (antisense TAGTTTTCAAATATGTTTAC; chemistry not given here) [compound 102589]”, the figure is 0%.

The series is the same for the next values; noted with them: Table 2, chimeric phosphorothioate 2'-MOE gapmers, averaged from two experiments.
For “102594 (antisense TGGCTGCGGCCGGCGGCCCG; chemistry not given here) [compound 102594]”, the “% Inhibition” value is given as 55%.
